IC50 data for 20 compounds are collected here from US10722514B2 (FLX Bio, Inc., priority 2017, dated 2020).

The target of this assay is T1, recombinant full-length USP7 (Homo sapiens, UniProt Q93009).
T1 construct: A 25 μl reaction volume containing recombinant full-length USP7 (62 pM)
The assay is described as follows: USP7-mediated ubiquitin-rhodamine cleavage assay. The assay is classed as biochemical. Particulars: recombinant full-length USP7 62 pM, ubiquitin-rhodamine 100 nM, 1 hour reaction at room temperature. The essentials:
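Full-length recombinant USP7 (62 pM) in 20 mM HEPES pH 7.3, 150 mM NaCl, 1 mM TCEP, 125 μg/ml BSA, 1% DMSO, preincubated with compound 30 min at RT. Ubiquitin-rhodamine (100 nM final) cleaved 1 h at RT in the dark, stopped with acetic acid; rhodamine fluorescence read, IC50 by 4-parameter nonlinear fit.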

Where [1] appears, read: 30-minute pre-incubation, read-out: Potency (USP7 IC50).
[2] abbreviates: 30-minute incubation with compound, read-out: Potency: USP7 IC50.

Counter-ions that a name gives are not always drawn. Like-named read-outs stand apart in the source and are kept apart here. Bounds are passed on as bounds.

T1 sequence (Q93009 whole entry): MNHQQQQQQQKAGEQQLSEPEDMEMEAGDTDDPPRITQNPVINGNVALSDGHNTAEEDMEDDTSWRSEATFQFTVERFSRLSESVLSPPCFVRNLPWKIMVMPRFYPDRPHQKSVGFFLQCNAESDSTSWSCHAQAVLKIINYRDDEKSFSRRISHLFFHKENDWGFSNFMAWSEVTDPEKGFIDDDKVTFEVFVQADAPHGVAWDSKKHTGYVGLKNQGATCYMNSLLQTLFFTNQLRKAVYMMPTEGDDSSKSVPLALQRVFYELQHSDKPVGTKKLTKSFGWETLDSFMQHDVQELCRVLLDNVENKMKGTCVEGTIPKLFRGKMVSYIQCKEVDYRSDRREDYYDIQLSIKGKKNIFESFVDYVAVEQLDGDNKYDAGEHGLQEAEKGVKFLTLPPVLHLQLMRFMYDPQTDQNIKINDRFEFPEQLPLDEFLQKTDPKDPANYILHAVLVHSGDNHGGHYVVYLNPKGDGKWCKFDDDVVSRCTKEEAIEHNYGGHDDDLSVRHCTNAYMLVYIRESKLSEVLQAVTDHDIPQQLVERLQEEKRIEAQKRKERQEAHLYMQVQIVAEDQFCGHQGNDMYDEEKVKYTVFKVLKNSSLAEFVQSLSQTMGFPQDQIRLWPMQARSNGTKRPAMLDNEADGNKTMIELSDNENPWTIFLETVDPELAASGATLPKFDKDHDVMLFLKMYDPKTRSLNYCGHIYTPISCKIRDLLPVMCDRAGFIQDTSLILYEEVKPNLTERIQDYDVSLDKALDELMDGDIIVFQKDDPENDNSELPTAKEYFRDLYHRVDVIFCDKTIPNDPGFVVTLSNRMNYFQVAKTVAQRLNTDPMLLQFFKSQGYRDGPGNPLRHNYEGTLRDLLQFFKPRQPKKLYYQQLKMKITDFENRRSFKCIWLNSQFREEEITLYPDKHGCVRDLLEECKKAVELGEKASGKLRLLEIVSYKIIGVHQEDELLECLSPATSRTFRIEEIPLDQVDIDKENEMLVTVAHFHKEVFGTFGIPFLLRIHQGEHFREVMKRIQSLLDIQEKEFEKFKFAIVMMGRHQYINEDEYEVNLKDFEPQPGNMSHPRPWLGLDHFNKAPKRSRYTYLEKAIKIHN

`Cc1cc(Cl)cc(-c2ccnc3cc(Cn4c(=O)ccn(C)c4=O)sc23)c1O[C@@H]1CNCC(C)(C)C1` [Example 536, 3-[[7-[5-chloro-2-[[(3S)-5-dimethyl-3-piperidyl]oxy]-3-methyl-phenyl]thieno[3,2-b]pyridin-2-yl]methyl]-1-methyl-pyrimidine-2,4-dione; 2,2,2-trifluoroacetic acid]: the IC50 under setting [1] is < 1000 nM.
On the same count and under the same terms, to `Cc1cc(C(F)(F)F)cc(-c2ccnc3cc(Cn4c(=O)[nH]cc(C)c4=O)sc23)c1O[C@@H]1CNC[C@@H]1F` [Example 434, 3-[[7-[2-[(3R,4S)-4-fluoropyrrolidin-3-yl]oxy-3-methyl-5-(trifluoromethyl)phenyl]thieno[3,2-b]pyridin-2-yl]methyl]-5-methyl-1H-pyrimidine-2,4-dione] belongs < 1000 nM; to `CCO[C@H]1CNC[C@H]1Oc1c(C)cc(Cl)cc1-c1ccnc2cc(Cn3c(=O)ccn(CC(F)(F)F)c3=O)sc12` [Example 604, 3-[[7-[5-chloro-2-[(3R,4S)-4-ethoxypyrrolidin-3-yl]oxy-3-methyl-phenyl]thieno[3,2-b]pyridin-2-yl]methyl]-1-(2,2,2-trifluoroethyl)pyrimidine-2,4-dione], < 1000 nM.
As for `CCC(O)c1cc2nccc(-c3cc(Cl)cc(C)c3OCC3(C)CNC3)c2s1` (centres unmarked) [Example 33, 1-(7-(5-Chloro-3-methyl-2-((3-methylazetidin-3-yl)methoxy)phenyl)thieno[3,2-b]pyridin-2-yl)propan-1-ol], under setting [2], the IC50 lay within 1000 to 10000 nM.
With `Cc1cc(Cl)cc(-c2ccnc3cc(CN4C(=O)CCC4=O)sc23)c1OC1CC(N)C1` (centres unmarked) [Example 413, 1-[[7-[2-(3-aminocyclobutoxy)-5-chloro-3-methyl-phenyl]thieno[3,2-b]pyridin-2-yl]methyl]pyrrolidine-2,5-dione dihydrochloride], the IC50 under setting [1] is < 1000 nM.
Turning to “1-((4-(5-Chloro-2-(((3R,4S)-4-fluoropyrrolidin-3-yl)oxy)-3-methylphenyl)thieno[3,2-d]pyrimidin-6-yl)methyl)pyrrolidine-2,5-dione [Example 96]”, the IC50 under setting [2] was < 1000 nM.
`Cc1cc(Cl)cc(-c2ccnc3cc(Cn4c(=O)ccn(C)c4=O)sc23)c1O[C@H]1CCCN(C)CC1` [Example 492, 3-[[7-[5-chloro-3-methyl-2-[(4S)-1-methylazepan-4-yl]oxy-phenyl]thieno[3,2-b]pyridin-2-yl]methyl]-1-methyl-pyrimidine-2,4-dione]: the IC50 under setting [1] is < 1000 nM.
Still for that read-out and setting: as for `COC(=O)[C@H]1C[C@H](Oc2c(C)cc(Cl)cc2-c2ccnc3cc(Cn4c(=O)ccn(CC(F)(F)F)c4=O)sc23)CN1` [Example 653, methyl (2R,4S)-4-[4-chloro-2-[2-[[2,6-dioxo-3-(2,2,2-trifluoroethyl)pyrimidin-1-yl]methyl]thieno[3,2-b]pyridin-7-yl]-6-methyl-phenoxy]pyrrolidine-2-carboxylate], the figure is < 1000 nM.
On the same count and under the same terms, as for `CCN1C[C@H](F)[C@H](Oc2c(C)cc(Cl)cc2-c2ccnc3cc(Cn4c(=O)ccn(C)c4=O)sc23)C1` [Example 459, 3-[[7-[5-chloro-2-[(3R,4S)-1-ethyl-4-fluoro-pyrrolidin-3-yl]oxy-3-methyl-phenyl]thieno[3,2-b]pyridin-2-yl]methyl]-1-methyl-pyrimidine-2,4-dione; 2,2,2-trifluoroacetic acid], the figure is < 1000 nM; as for `Cc1cc(Cl)cc(-c2ccnc(CCCN3C(=O)CCC3=O)c2)c1OC1CNC[C@@H]1F` (stereo partly drawn) [Example 408, 1-[3-[4-[5-chloro-2-[(4S)-4-fluoropyrrolidin-3-yl]oxy-3-methyl-phenyl]-2-pyridyl]propyl]pyrrolidine-2,5-dione; 2,2,2-trifluoroacetic acid], 1000 to 10000 nM.
Consider `CCN1C[C@H]2C[C@@H]1[C@H](Oc1c(C)cc(Cl)cc1-c1ccnc3cc(CN4C(=O)CCC4=O)sc13)C2` [Example 321, 1-[[7-[5-chloro-2-[[(1S,4R,5R)-3-ethyl-3-azabicyclo[2.2.1]heptan-5-yl]oxy]-3-methyl-phenyl]thieno[3,2-b]pyridin-2-yl]methyl]pyrrolidine-2,5-dione], for which the IC50 under setting [2] is < 1000 nM.
Take `Cc1cc([N+](=O)[O-])cc(-c2ccnc3cc(Cn4c(=O)ccn(C)c4=O)sc23)c1O[C@H]1CCCNC1` [Example 573, 1-methyl-3-[[7-[3-methyl-5-nitro-2-[[(3S)-3-piperidyl]oxy]phenyl]thieno[3,2-b]pyridin-2-yl]methyl]pyrimidine-2,4-dione; 2,2,2-trifluoroacetic acid]: the IC50 under setting [1] was < 1000 nM.
`Cc1cc(Cl)cc(-c2ccnc3cc(CO)sc23)c1OC[C@@H]1CNCCN1` [Example 168, (S)-(7-(5-Chloro-3-methyl-2-(piperazin-2-ylmethoxy)phenyl)thieno[3,2-b]pyridin-2-yl)methanol]: under setting [2], the IC50 fell in the range of 10000 to 30000 nM.
Turning to `Cc1cc(Cl)cc(-c2ccnc3cc(Cn4c(=O)ccn(CC(F)(F)F)c4=O)sc23)c1O[C@H]1C[C@@H]2NCCO[C@@H]2C1` [Example 696, 3-[[7-[2-[[(4aS,6S,7aR)-2,3,4,4a,5,6,7,7a-octahydrocyclopenta[b][1,4]oxazin-6-yl]oxy]-5-chloro-3-methyl-phenyl]thieno[3,2-b]pyridin-2-yl]methyl]-1-(2,2,2-trifluoroethyl)pyrimidine-2,4-dione], the IC50 (30-minute incubation, read-out: Potency (USP7 IC50)) was < 1000 nM.
On to `Cc1cc(Cl)cc(-c2ccnc3cc(CO)sc23)c1O[C@@H]1CC[C@@H](N)C1` [Example 90, (7-(2-(((1R,3R)-3-Aminocyclopentyl)oxy)-5-chloro-3-methylphenyl)thieno[3,2-b]pyridin-2-yl)methanol], for which the IC50 under setting [2] was 1000 to 10000 nM.
As for `Cc1cc(Cl)cc(-c2ccnc3cc(Cn4c(=O)ccn(C)c4=O)sc23)c1O[C@H]1CCN[C@@H](C)C1` [Example 593, 3-[[7-[5-chloro-3-methyl-2-[[(2S,4S)-2-methyl-4-piperidyl]oxy]phenyl]thieno[3,2-b]pyridin-2-yl]methyl]-1-methyl-pyrimidine-2,4-dione], the IC50 under setting [1] is < 1000 nM.
On the same count and under the same terms, to `Cc1cc(Cl)cc(-c2ccnc3cc(CN4C(=O)CCC4=O)sc23)c1O[C@H]1CCCN(C)C1` [Example 448, 1-[[7-[5-chloro-3-methyl-2-[[(3S)-1-methyl-3-piperidyl]oxy]phenyl]thieno[3,2-b]pyridin-2-yl]methyl]pyrrolidine-2,5-dione] belongs < 1000 nM.
For the compound “2-((4-(5-Chloro-3-methyl-2-(piperidin-4-yloxy)phenyl)thieno[3,2-d]pyrimidin-6-yl)methyl)tetrahydrocyclopenta[c]pyrrole-1,3(2H,3aH)-dione [Example 178]”, the IC50 under setting [2] is < 1000 nM.
The same measure, in the same setting: to `Cc1cc(Cl)cc(-c2ncnc3cc(CN4C(=O)CN(C)C4=O)sc23)c1O[C@@H]1CNC[C@@H]1F` [Example 146, 3-((4-(5-Chloro-2-(((3R,4S)-4-fluoropyrrolidin-3-yl)oxy)-3-methylphenyl)thieno[3,2-d]pyrimidin-6-yl)methyl)-1-methylimidazolidine-2,4-dione] belongs < 1000 nM; to `CC[C@@H](c1cc2nccc(-c3cc(Cl)cc(C)c3O[C@H]3CCCNC3)c2s1)N1C(=O)CCC1=O` [Example 257, 1-((S)-1-(7-(5-Chloro-3-methyl-2-(((S)-piperidin-3-yl)oxy)phenyl)thieno[3,2-b]pyridin-2-yl)propyl)pyrrolidine-2,5-dione], < 1000 nM.
